Measured values taken from ChEMBL document CHEMBL1201862, “PubChem BioAssay data set” (2004).
Values joined by “and” are separate entries in the source; they are usually repeats but may differ in a detail not shown here. Identical values can stand only once. Active and inactive are the calls of the source.

Legend:
[1] = NIH-3T3 fibroblast cytotoxicity, dose response, cytotoxicity control, cell-based, fluorescence, Alamar Blue, secondary assay (AID 2327); assay type: functional;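 further: NIH-3T3 mouse fibroblasts cultured with fluconazole at 8 µg/mL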
[2] = decrease of insulin promoter-GFP reporter – imaging, high-content screening, mouse beta cells (AID 1628); assay type: functional; settings: MIN6
[3] = MIN6 cell viability loss – mouse insulinoma, cytotoxicity control, dose response (AID 2122); assay type: functional;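 further: confirmatory high-throughput counterscreen run to flag cytotoxic compounds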
[4] = fluconazole-exposed Candida albicans growth modulators – fluorescence, retest, confirmation (AID 2467); assay type: functional, cell-based
[5] = Trypanosoma cruzi growth suppression in host cells – NIH3T3 host cells, beta-gal luminescence, confirmation (AID 2044); assay type: functional, cell-based;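 further: intracellular parasites grown in NIH/3T3 mouse fibroblasts as host cells; luminescent beta-galactosidase reporter signal from transgenic T. cruzi replicating inside host cells; inhibitors lower the luminescence signal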
[6] = molecular target: G-protein coupled receptor 55 (Homo sapiens, UniProt Q9Y2T6); assay: selective activators of receptor GPR55 – imaging, U2OS cells, beta-arrestin-GFP redistribution, primary screen (AID 1961); assay type: functional
[7] = molecular target: T1, Ubiquitin-conjugating enzyme E2 N (Homo sapiens, UniProt P61088); assay type: functional;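 further: Dose-response confirmation in a TR-FRET assay detecting UBC13-driven polyubiquitin chain formation, inhibition measured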
T1 sequence (P61088 whole entry): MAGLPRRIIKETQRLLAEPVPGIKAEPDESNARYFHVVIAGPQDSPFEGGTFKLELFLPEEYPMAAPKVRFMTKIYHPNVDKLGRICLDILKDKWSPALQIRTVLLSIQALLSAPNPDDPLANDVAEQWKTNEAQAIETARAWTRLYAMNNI

[8] = molecular target: T2, Microphthalmia-associated transcription factor (Homo sapiens, UniProt O75030); assay: reducers of TRPM1 reporter luminescence, concentration series – cell-based, SK-MEL-5, cherry-picked, set 3, MITF inhibitor project, dose response (AID 493073); assay type: functional;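 further: SK-MEL-5 melanoma cells with luciferase driven by the MITF target TRPM1 promoter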
T2 sequence (O75030 whole entry): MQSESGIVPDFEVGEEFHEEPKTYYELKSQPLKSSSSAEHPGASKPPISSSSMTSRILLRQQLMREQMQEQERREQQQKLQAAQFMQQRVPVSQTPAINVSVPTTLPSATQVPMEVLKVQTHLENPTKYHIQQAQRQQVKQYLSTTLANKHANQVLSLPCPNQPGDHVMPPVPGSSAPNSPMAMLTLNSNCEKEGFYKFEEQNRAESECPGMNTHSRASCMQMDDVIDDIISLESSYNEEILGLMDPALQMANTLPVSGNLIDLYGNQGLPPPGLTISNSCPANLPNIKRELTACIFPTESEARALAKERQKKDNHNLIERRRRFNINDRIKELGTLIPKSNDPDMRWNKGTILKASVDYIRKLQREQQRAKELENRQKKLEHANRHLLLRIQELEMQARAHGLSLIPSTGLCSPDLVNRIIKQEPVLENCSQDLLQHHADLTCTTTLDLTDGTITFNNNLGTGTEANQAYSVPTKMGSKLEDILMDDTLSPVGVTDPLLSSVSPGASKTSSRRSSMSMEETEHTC

[9] = molecular target: T3, X-box-binding protein 1 (Homo sapiens, UniProt P17861); assay type: functional, Cricetulus griseus;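 further: confirmatory dose-response counter-screen serving a CHOP assay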
T3 sequence (P17861 whole entry): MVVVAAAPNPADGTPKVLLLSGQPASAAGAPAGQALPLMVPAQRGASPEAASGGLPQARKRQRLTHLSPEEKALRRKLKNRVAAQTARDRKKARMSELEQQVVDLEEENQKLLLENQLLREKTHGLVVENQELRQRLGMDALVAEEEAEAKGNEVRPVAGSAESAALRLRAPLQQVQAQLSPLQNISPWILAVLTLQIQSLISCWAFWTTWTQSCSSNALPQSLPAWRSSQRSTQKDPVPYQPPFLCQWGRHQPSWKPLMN

[10] = molecular target: T4, Apoptotic protease-activating factor 1 (Homo sapiens, UniProt O14727); assay type: functional
T4 sequence (O14727 whole entry): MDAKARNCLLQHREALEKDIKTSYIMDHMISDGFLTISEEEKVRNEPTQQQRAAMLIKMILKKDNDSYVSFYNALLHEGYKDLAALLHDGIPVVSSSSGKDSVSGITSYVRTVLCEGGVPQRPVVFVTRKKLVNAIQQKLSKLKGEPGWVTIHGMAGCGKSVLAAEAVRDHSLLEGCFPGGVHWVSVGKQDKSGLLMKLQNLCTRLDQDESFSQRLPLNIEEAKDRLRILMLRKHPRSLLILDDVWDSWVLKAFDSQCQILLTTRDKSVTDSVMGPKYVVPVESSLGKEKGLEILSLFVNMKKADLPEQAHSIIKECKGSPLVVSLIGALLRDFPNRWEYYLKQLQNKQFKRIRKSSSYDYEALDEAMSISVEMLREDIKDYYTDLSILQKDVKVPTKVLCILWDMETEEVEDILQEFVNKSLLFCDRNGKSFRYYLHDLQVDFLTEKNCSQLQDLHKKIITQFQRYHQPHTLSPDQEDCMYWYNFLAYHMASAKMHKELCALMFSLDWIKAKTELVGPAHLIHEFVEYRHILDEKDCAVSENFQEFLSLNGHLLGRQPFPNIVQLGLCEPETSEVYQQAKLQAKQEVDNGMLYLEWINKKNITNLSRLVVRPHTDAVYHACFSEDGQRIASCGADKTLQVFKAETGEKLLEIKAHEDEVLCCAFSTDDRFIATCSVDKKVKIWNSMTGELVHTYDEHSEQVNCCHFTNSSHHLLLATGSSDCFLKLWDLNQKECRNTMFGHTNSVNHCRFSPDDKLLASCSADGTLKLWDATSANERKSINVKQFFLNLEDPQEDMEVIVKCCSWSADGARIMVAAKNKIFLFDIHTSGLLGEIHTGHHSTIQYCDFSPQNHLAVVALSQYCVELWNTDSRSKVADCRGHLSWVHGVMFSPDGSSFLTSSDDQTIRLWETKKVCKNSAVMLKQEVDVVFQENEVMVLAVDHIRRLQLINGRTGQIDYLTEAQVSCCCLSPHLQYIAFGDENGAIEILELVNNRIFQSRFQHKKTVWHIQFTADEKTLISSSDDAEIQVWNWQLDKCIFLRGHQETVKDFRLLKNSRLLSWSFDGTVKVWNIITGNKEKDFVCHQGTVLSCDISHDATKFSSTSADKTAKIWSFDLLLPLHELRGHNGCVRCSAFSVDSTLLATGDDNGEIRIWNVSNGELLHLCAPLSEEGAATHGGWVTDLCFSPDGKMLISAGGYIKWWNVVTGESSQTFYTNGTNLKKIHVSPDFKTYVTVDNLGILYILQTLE

[11] = system: INS1; assay: INS-1E survival protection against cytokine death – cell-based, luminescence, retest, dose response (AID 449756); assay type: functional; settings: Rattus norvegicus;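 further: cell death triggered by IL-1 beta plus TNF-alpha plus IFN-gamma mixture; protective hits raise ATP signal compared with cytokine alone wells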
[12] = system: A-375; assay: proliferation inhibition in MITF-low A375 cells – cell-based, cherry-pick samples, set 2, counter-screen for MITF modulator project, dose response (AID 540335); assay type: functional; settings: Homo sapiens
[13] = blockers of HIV-1 envelope-mediated cell-cell fusion – cherry-pick, dose response (AID 652057); assay type: functional, cell-based
[14] = viability loss in CEM21 cells – cell-based, CellTiter-Glo luminescence, cherry-picked, cytotoxicity control for viral fusion inhibitor project, dose response (AID 652042); assay type: functional;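 further: potency for signal decrease meaning cytotoxicity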
[15] = blockers of HIV-1 ZM109 envelope-driven cell-cell fusion – HeLa effector, CEM target cells, luciferase, cherry-pick, dose response (AID 652058); assay type: functional, cell-based;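 further: luciferase signal from HIV-1 Env mediated cell-cell fusion of effector and target cells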
[16] = off-target signal loss in HeLa-CEM21 co-culture – HeLa F-luc CTL cells, cherry-picked, counter-screen for HIV-1 Env fusion inhibitor project, dose response (AID 652040); assay type: functional, cell-based;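 further: potency for signal decrease marking cytotoxic or nonspecific inhibition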
[17] = HIV-1 AD8 envelope cell-cell fusion blockers – cherry-pick, dose response (AID 652062); assay type: functional, cell-based;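 further: luciferase signal from cell-cell fusion driven by HIV-1 clade B AD8 Env; potency is for inhibitors of fusion seen as a drop in luminescence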
[18] = molecular target: Luciferin 4-monooxygenase (Photinus pyralis, UniProt P08659); assay: inhibition of purified Photinus pyralis luciferase – biochemical, luminescence, dose response (AID 1891)
[19] = Luminescence Cell-Based Dose Confirmation HTS to Identify Inhibitors of Platelet Dense Granule Release. [Related pubchem assays: 1663 (Primary HTS), 1678 (Summary of Project)]; assay type: functional
[20] = molecular target: Cysteine protease ATG4B (Homo sapiens, UniProt Q9Y4P1); assay type: functional;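 further: Fluorescence-based dose-response confirmation assay measuring inhibition of ATG4B activity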
[21] = molecular target: Phospholipase A2 (Homo sapiens, UniProt P04054); assay type: functional;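 further: confirmatory dose-response counterscreen on phospholipase A2, testing hits that came from an ultra-high-throughput screen for ATG4B inhibitors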
Sequence of Phospholipase A2 (P04054 whole entry): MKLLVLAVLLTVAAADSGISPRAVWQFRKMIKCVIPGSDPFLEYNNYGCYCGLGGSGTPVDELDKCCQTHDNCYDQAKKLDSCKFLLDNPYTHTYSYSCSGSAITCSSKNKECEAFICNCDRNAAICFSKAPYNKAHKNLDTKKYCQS

Sequence of Cysteine protease ATG4B (Q9Y4P1 whole entry): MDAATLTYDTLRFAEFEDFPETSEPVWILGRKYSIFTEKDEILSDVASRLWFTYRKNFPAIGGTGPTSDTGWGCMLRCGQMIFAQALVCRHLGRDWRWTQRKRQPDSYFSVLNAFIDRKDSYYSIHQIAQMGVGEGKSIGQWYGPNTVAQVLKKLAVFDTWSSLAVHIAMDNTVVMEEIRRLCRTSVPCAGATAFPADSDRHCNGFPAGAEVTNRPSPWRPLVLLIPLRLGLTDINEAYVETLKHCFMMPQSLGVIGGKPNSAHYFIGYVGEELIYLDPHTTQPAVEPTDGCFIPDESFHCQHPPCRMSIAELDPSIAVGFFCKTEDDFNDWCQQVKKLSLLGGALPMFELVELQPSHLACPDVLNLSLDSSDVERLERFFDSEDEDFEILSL
Sequence of G-protein coupled receptor 55 (Q9Y2T6 whole entry): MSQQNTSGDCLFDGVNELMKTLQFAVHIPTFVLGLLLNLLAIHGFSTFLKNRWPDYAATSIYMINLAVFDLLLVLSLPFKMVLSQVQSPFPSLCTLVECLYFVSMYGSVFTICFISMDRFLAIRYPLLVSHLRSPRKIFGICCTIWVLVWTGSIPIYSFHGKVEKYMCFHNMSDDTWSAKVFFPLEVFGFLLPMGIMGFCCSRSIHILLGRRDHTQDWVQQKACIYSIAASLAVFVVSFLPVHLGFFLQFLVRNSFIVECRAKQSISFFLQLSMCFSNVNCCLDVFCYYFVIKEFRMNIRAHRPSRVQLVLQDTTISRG
Sequence of Luciferin 4-monooxygenase (P08659 whole entry): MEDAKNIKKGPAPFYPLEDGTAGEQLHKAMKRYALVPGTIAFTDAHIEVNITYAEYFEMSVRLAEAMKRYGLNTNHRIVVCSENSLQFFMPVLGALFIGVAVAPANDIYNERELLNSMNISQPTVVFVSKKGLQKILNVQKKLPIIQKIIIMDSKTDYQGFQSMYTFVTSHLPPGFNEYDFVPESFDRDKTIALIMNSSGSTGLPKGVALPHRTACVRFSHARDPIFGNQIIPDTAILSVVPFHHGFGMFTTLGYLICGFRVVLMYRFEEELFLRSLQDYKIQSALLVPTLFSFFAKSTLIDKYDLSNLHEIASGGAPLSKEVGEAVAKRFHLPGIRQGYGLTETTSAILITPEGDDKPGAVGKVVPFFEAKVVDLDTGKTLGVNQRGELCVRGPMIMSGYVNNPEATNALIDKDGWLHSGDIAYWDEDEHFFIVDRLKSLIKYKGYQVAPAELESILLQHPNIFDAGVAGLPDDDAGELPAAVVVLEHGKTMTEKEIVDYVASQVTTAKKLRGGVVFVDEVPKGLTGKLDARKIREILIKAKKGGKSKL

## Cc1ccccc1OCc1n(CC(=O)OC2CC(C)CCC2C(C)C)c2ccccc2[n+]1C.[Cl-] (stereo unspecified)
[1]
  EC50: > 160 µM (inactive)
[2]
  IC50: 1.52 µM (active)
[3]
  IC50: 1.95 µM (active)
[4]
  EC50: 0.693 µM (active)
[5]
  EC50: 684 nM (active) and 429 nM (active)
[6]
  EC50: > 32 µM (inactive)
[7]
  IC50: > 20 µM (inactive)
[8]
  AC50: 7.51 µM (active)
[9]
  Absolute IC50 (XBP1): 10 µM
[10]
  IC50: 29.5 µM (active)
[11]
  AC50: 3.39 µM (active)
[12]
  AC50: 19 µM (active)
[13]
  AC50: 6.17 µM (active)
[14]
  AC50: 4.93 µM (active)
[15]
  AC50: 8.94 µM (active)
[16]
  AC50: 9.17 µM (active)
[17]
  AC50: 7 µM (active)

## OC(CNCc1ccc(Cl)c(Cl)c1)c1ccccc1 (stereo unspecified)
[18]
  EC50: > 112 µM (not active)
[19]
  EC50: 19 µM (active)
[20]
  IC50: 14.5 µM (active)
[21]
  IC50: 9.81 µM (active)
